What was measured:
14-3-3σ/C-RAF259 [1] = target: T1, 14-3-3σ/C-RAF259 (Homo sapiens, UniProt P31947); experiment: Intact mass spectrometry assay with C-RAF259 phospho-peptide; assay type: binding; design: full-length for mass spectrometry and fluorescence anisotropy assays; made in house; host or cells: E. coli Rosetta 2(DE3)pLysS (14-3-3σ); peptides from Elim Biopharmaceuticals; settings: 1 μM compound, 100 nM 14-3-3σ, 18 µM peptide
Procedure: (§1) In analogy to our previous work, two orthogonal assays were used for screening (Figure S2). […] Dose responses of compounds were performed in the absence and presence of the C-RAF259 phospho-peptide to distinguish between neutral binders and cooperative molecular glues. The experiment was performed as a time course, with measurements every 8 h, after an 1 h incubation. Additionally, the compounds were tested in a fluorescence anisotropy (FA) assay in the presence of the 5-carboxyfluorescein-(FAM)-labeled C-RAF259 peptide. […] The full dose–response data for all compounds are available in the SI (Tables S2–S5, Figures S5–S8, Figures S15–S18, Figures S25–S32, Figures S37–S39). The dose–response data from both assays were also visually compared in the form of bar graphs. […] For FA experiments, the EC50 values from the overnight measurement were calculated and plotted as bar graphs showing the […] log EC50 value (pEC50). Compounds acting as MGs were expected to show increases in both types of bar graphs.
(§2) transferred in the assay plates.
(§3) The reacton mixtures were incubated
(§4) dispensed in the assay plates.
(§5) incubaton at room temperature .

14-3-3σ = target: T2, 14-3-3σ (Homo sapiens, UniProt P31947); experiment: Intact mass spectrometry assay, apo (no peptide); assay type: binding; design: full-length for mass spectrometry and fluorescence anisotropy assays; made in house; host or cells: E. coli Rosetta 2(DE3)pLysS, pPROEX HTb vector; settings: 1 μM compound, 100 nM 14-3-3σ
T2 sequence (P31947 1-248): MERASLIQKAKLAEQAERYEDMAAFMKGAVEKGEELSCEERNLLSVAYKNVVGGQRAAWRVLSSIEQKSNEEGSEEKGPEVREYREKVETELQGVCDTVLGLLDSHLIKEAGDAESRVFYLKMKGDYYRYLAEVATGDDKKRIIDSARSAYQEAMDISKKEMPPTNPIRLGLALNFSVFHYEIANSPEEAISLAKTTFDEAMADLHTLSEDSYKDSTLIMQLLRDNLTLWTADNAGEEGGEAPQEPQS
Procedure: as §1, §2, §3, §4, §5

14-3-3σ/C-RAF259 [2] = target: T1, 14-3-3σ/C-RAF259; experiment: FA protein titration, C-RAF259 peptide; settings: appKd DMSO / appKd compound
14-3-3σ/C-RAF259 [3] = target: T1, 14-3-3σ/C-RAF259; experiment: Fluorescence anisotropy (FA) compound titration; assay type: binding; settings: 10 nM C-RAF259-FAM 10-mer, 5 μΜ 14-3-3σ, overnight; for EC50: read-out: Compound titrations EC50 value C-RAF259
Procedure: as §1, §2, §3, §4, §5

| Compound | % bound, C-RAF259 (11mer), 1h (14-3-3σ/C-RAF259 [1]) [%] | % bound, C-RAF259 (11mer), 8h (14-3-3σ/C-RAF259 [1]) [%] | % bound, C-RAF259 (11mer), 16h (14-3-3σ/C-RAF259 [1]) [%] | % bound, C-RAF259 (11mer), 24h (14-3-3σ/C-RAF259 [1]) [%] | % bound, APO, 1h (14-3-3σ) [%] | % bound, APO, 8h (14-3-3σ) [%] | % bound, APO, 16h (14-3-3σ) [%] | % bound, APO, 24h (14-3-3σ) [%] | Fold stabilization (100 µM compound), C-RAF259 (10mer) (14-3-3σ/C-RAF259 [2]) [fold] | EC50 (14-3-3σ/C-RAF259 [3]) [µM] | Compound titrations EC50 value C-RAF259 (14-3-3σ/C-RAF259 [3]) |
| --- | --- | --- | --- | --- | --- | --- | --- | --- | --- | --- | --- |
| O=C(CCl)NCC1CCN(S(=O)(=O)c2ccc(OC(F)(F)F)cc2)CC1 [Compound 19] | 20.5 | 41.3 | 69.5 | 91.3 | 0 | 0.5 | 2.5 | 6.5 | 14 | 13 ± 3 | – |
| O=C(CCl)NCC1CCN(S(=O)(=O)c2ccc(F)cc2)CC1 [Compound 11] | 6.9 | 15 | 26 | 50.3 | 0 | 1.5 | 4.7 | 6.9 | 4 | 17 ± 3 | – |
| O=C(CCl)NCC1CCN(S(=O)(=O)c2ccc(C(F)(F)F)cc2)CC1 [Compound 18] | 8.2 | 17.9 | 28.4 | 46.8 | 0 | 0.9 | 6.5 | 12.7 | 15 | 17 ± 1 | – |
| O=C(CCl)NCC1CCN(S(=O)(=O)c2ccc(Cl)nc2)CC1 [Compound 14] | 4.7 | 7.4 | 9.9 | 20.9 | 1.9 | 2.5 | 3 | 15 | – | 82 ± 6 | – |
| O=C(CCl)NCC1CCN(S(=O)(=O)Cc2ccc(Cl)cc2)CC1 [Compound 9] | 0 | 0.5 | 2.9 | 3.2 | 0 | 0 | 1.5 | 1.9 | – | > 1000 | – |
| O=C(CCl)NCC1CCN(S(=O)(=O)c2ccccc2)CC1 [Compound 10] | 4.7 | 5.6 | 5.7 | 13 | 4.7 | 4.7 | 4.7 | 4.7 | – | 66 ± 4 | – |
| O=C(CCl)NCC1CCN(S(=O)(=O)c2cccc(C(F)(F)F)c2)CC1 [Compound 17] | 1.9 | 3.4 | 6.5 | 12.3 | 0 | 0 | 0.5 | 0.9 | – | > 150 | – |
| O=C(CCl)NCC1CCN(S(=O)(=O)Cc2ccccc2)CC1 [Compound 6] | 0.9 | 2.9 | 6.5 | 7 | 0 | 1 | 4.7 | 4.7 | – | > 1000 | – |

The remaining lines, values ahead:

| % bound, C-RAF259 (11mer), 1h (14-3-3σ/C-RAF259 [1]) [%] | % bound, C-RAF259 (11mer), 8h (14-3-3σ/C-RAF259 [1]) [%] | % bound, C-RAF259 (11mer), 16h (14-3-3σ/C-RAF259 [1]) [%] | % bound, C-RAF259 (11mer), 24h (14-3-3σ/C-RAF259 [1]) [%] | % bound, APO, 1h (14-3-3σ) [%] | % bound, APO, 8h (14-3-3σ) [%] | % bound, APO, 16h (14-3-3σ) [%] | % bound, APO, 24h (14-3-3σ) [%] | Fold stabilization (100 µM compound), C-RAF259 (10mer) (14-3-3σ/C-RAF259 [2]) [fold] | EC50 (14-3-3σ/C-RAF259 [3]) [µM] | Compound titrations EC50 value C-RAF259 (14-3-3σ/C-RAF259 [3]) | Compound |
| --- | --- | --- | --- | --- | --- | --- | --- | --- | --- | --- | --- |
| 25.8 | 39.4 | 49 | 84 | 0.5 | 1.9 | 4.7 | 8.2 | 49 | 11 ± 1 | – | CC1(CNC(=O)CCl)CCN(S(=O)(=O)c2ccc(Br)c(F)c2)CC1 [Compound 46] |
| 16.5 | 45.2 | 71.2 | 80.5 | 4.7 | 17.3 | 28 | 51.8 | 6 | 12 ± 1 | – | O=C(CCl)N1CC2CC1CN2S(=O)(=O)c1ccc(Br)c(F)c1 (centres unmarked) [Compound 58] |
| 7.7 | 18.5 | 31.8 | 50.3 | 0 | 0 | 0.9 | 0.9 | 13 | 9 ± 1 | – | COc1ccc(S(=O)(=O)N2CCC(CNC(=O)CCl)CC2)cc1F [Compound 33] |
| 28 | 43.9 | 61.9 | 83.3 | 0 | 0.9 | 2.9 | 4.4 | 39 | 2 ± 1 | – | O=C(CCl)NCC1CCN(S(=O)(=O)c2ccc(Br)c(F)c2F)CC1 [Compound 38] |
| 11 | 24.8 | 41.8 | 60.3 | 1 | 2.5 | 6.5 | 22.5 | 3 | 12 ± 2 | – | O=C(CCl)NCC1CCN(S(=O)(=O)c2ccc(F)c(Cl)c2)CC1 [Compound 30] |
| 20.6 | 41.1 | 69.5 | 91.7 | 0 | 0.9 | 2.9 | 4.5 | 18 | 25 ± 2 | – | O=C(CCl)NCC1CCN(S(=O)(=O)c2ccc(Br)cc2F)CC1 [Compound 36] |
| 39.3 | 64.6 | 78.1 | 96.7 | 0 | 1.9 | 3.8 | 3.8 | 7 | 17 ± 3 | – | O=C(CCl)NCC1CCN(S(=O)(=O)c2cc(F)c(Br)cc2F)CC1 [Compound 39] |
| 4.3 | 11.3 | 22.6 | 34.1 | 0 | 0 | 1.9 | 5.2 | – | 26 ± 3 | – | O=C(CCl)NCC1CCN(S(=O)(=O)c2ccc3c(c2)OCO3)CC1 [Compound 26] |
| 0 | 0 | 0 | 2.9 | 0 | 0 | 0 | 0 | – | > 1000 | completely inactive | C=C(F)C(=O)N1CC2(CCN(S(=O)(=O)c3ccc(Br)c(F)c3)CC2(F)F)C1 [Compound 75] |
| 6.1 | 9.9 | 20.6 | 34.6 | 0 | 0.9 | 1.9 | 7.4 | – | > 1000 | – | O=C(CCl)NC1CC2(CCN(S(=O)(=O)c3ccc(Br)c(F)c3)CC2)C1 [Compound 55] |

From paper PMC12903857
